Results reported in ChEMBL document CHEMBL3039007, “Structure-based identification of OATP1B1/3 inhibitors” (Mol Pharmacol, 2013).

What was measured:
[1] = target: T1, Solute carrier organic anion transporter family member 1B1 (Homo sapiens, UniProt Q9Y6L6); settings: chinese hamster, cho, 10 µM
T1 sequence (Q9Y6L6 whole entry): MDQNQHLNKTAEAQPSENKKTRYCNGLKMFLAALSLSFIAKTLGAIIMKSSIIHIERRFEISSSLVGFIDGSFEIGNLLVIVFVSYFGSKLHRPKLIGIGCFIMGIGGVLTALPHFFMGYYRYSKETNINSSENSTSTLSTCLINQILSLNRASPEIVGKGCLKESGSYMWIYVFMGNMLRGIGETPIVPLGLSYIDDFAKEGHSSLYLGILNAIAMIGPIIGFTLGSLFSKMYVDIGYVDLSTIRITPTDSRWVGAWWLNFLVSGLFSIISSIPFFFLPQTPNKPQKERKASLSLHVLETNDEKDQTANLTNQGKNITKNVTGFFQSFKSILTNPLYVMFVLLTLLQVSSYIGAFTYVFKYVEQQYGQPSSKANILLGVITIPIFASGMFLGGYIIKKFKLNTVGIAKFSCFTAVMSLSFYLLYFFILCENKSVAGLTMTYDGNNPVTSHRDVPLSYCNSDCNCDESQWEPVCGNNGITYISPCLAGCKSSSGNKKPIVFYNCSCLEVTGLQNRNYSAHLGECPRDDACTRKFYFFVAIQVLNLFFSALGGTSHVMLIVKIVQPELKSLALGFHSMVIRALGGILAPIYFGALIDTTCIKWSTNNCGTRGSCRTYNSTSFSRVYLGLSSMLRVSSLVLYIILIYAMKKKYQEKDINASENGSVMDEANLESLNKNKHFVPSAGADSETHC

[2] = target: T2, Solute carrier organic anion transporter family member 1B3 (Homo sapiens, UniProt Q9NPD5); settings: chinese hamster, cho, 10 µM
T2 sequence (Q9NPD5 whole entry): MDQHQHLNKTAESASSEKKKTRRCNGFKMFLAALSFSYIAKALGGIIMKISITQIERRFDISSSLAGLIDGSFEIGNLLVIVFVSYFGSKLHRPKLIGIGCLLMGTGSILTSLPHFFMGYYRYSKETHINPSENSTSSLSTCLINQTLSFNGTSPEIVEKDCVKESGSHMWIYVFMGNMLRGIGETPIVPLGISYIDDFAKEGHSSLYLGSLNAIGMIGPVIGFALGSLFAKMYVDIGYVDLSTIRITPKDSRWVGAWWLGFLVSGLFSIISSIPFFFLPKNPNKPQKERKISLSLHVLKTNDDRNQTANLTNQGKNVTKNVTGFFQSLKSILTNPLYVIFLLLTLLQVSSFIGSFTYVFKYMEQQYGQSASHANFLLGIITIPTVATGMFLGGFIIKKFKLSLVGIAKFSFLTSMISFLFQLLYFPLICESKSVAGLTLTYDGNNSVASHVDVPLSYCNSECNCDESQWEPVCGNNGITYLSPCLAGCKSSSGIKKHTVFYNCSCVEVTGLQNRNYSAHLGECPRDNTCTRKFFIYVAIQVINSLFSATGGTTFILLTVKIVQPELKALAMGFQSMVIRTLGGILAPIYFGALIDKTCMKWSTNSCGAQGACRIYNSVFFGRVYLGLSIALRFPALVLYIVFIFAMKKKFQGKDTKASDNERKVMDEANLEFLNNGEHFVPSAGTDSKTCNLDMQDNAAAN

Row | Compound | residual activity [1] | residual activity [2]
1 | NCC[C@H](O)C(=O)N[C@@H]1C[C@H](N)[C@@H](O[C@H]2O[C@H](CN)[C@@H](O)[C@H](O)[C@H]2O)[C@H](O)[C@H]1O[C@H]1O[C@H](CO)[C@@H](O)[C@H](N)[C@H]1O.O=S(=O)(O)O | 72.99% | 92.21%
2 | CCCCCC(C)N.O=S(=O)(O)O (stereo not given) | 70.88% | 90.66%
3 | O=C(O)CCCOc1ccc(Cl)cc1Cl | 123.3% | 112%
4 | CCCCCCCCCCCCCCCC[n+]1ccccc1.O.[Cl-] | 77.95% | 166.6%
5 | C[C@]12CC[C@@H]3c4ccc(OCc5ccccc5)cc4CC[C@H]3[C@@H]1C[C@@H](O)[C@@H]2O | 100% | 102.7%
6 | C[C@]12CC[C@@H]3c4ccc(OS(=O)(=O)[O-])cc4CC[C@H]3[C@@H]1CC[C@@H]2O.[Na+] | 53.18% | 95.65%
7 | COc1ccc2c(c1)CC[C@@H]1[C@@H]2CC[C@]2(C)[C@@H](O)[C@H](O)C[C@@H]12 | 76.58% | 103.4%
8 | C[C@@H]1CC(Cl)CC[C@H]1C(=O)OC(C)(C)C.C[C@@H]1CCC(Cl)C[C@H]1C(=O)OC(C)(C)C (stereo not given in full) | 121% | 115.1%
9 | CC1(C)[C@H](O)CC(=O)[C@]2(C)[C@H]3CC[C@@]4(C)[C@H](c5ccoc5)OC(=O)[C@H]5O[C@]54[C@]3(C)C(=O)C[C@@H]12 | 33.49% | 61.45%
10 | CC(=O)O[C@H]1CC[C@@]23C(=O)O[C@]45CC[C@H](C6=CC(=O)OC6)[C@@]4(C)CC[C@H]2[C@H]5CC[C@]3(O)C1 | 59.99% | 85.76%
11 | CCOC(N)=O | 109.1% | 101.6%
12 | Cc1onc(-c2ccccc2)c1C(=O)N[C@@H]1C(=O)N2[C@@H]1SC(C)(C)[C@@H]2C(=O)[O-].[Na+] | 76.67% | 90.07%
13 | CCN(CC)C(=S)SSC(=S)N(CC)CC | 71.59% | 64.06%

Results, then the molecule that gave them:

Row | residual activity [1] | residual activity [2] | Compound
14 | 67.47% | 56.31% | CCCCC(=O)N(Cc1ccc(-c2ccccc2-c2nnn[nH]2)cc1)[C@H](C(=O)O)C(C)C
15 | 89.17% | 96.23% | CN[C@@H]1[C@H](O)[C@H](NC)[C@H]2O[C@@]3(O)C(=O)C[C@@H](C)O[C@H]3O[C@@H]2[C@H]1O.Cl
16 | 118.1% | 115.5% | COC(=O)CCCOc1ccc(Cl)cc1Cl
17 | 240.6% | 88.55% | CC1=C(CC(=O)O)c2cc(F)ccc2/C1=C\c1ccc([S+](C)[O-])cc1 (stereo not given)
18 | 71.57% | 86.34% | CC[C@@H](CO)NCCN[C@@H](CC)CO.Cl
19 | 105.5% | 93.76% | CC(C)CCCCCOC(=O)COc1cc(Cl)c(Cl)cc1Cl
20 | 76.42% | 77.45% | CCC(=O)OCC(=O)[C@]1(OC(=O)CC)[C@H](C)C[C@H]2[C@@H]3CCC4=CC(=O)C=C[C@]4(C)[C@@]3(F)[C@@H](O)C[C@]21C
21 | 68.02% | 74.75% | CC1(C)C(=O)[C@@H]2O[C@@H]2[C@]2(C)[C@H]3CC[C@@]4(C)[C@H](c5ccoc5)OC(=O)[C@H]5O[C@]54[C@]3(C)C(=O)C[C@@H]12
22 | 71.83% | 72.95% | CC=CC(=O)N(CC)c1ccccc1C
23 | 113.1% | 112.7% | O=C(O)CCCN1C(=O)c2cccc3cccc(c23)C1=O
24 | 73.96% | 96.66% | Cc1cc(-c2ccccc2)nnc1NCCN1CCOCC1.Cl
25 | 92.13% | 78.64% | C=CC1=C(C(=O)O)N2C(=O)[C@@H](NC(=O)/C(=N\O)c3csc(N)n3)[C@H]2SC1
